Residue numbers refer to the chain shown, from its start.
Tests used:
Experiment in all cases: E. coli prhlA-luxCDABE luciferase reporter assay
Type in all cases: cell-based, Escherichia coli
RhlR (T58F) = biological target: T1, RhlR (T58F) (Pseudomonas aeruginosa, UniProt P54292, T58F)
T1 construct: expressed in transfected cells; host or cells: E. coli carrying pBAD-A-rhlR mutant, pCS26-prhlA-luxCDABE and pACYC-pqsE or empty pACYC
T1 sequence (P54292 1-241 T58F): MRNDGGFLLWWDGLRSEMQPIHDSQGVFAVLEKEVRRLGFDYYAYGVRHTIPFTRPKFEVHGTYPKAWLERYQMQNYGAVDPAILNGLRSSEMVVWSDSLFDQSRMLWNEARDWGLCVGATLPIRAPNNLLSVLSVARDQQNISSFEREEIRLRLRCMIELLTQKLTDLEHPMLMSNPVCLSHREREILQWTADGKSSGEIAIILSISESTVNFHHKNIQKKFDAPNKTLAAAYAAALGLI
Description: (§1) Previous analysis of the RhlR LBP focused on highly conserved residues that were known from other AHL-binding proteins to be important contacts for AHL molecules, particularly the lactone head group. We performed conservation analyses on 300 LuxR-type receptors to determine variable and moderately conserved residues in the LBP (Fig. 1B) and, in conjunction with our previously determined experimental structure of WT RhlR bound to the synthetic agonist mBTL, used for docking C4- and C6HSL. Based on our docking simulations, C4- and C6HSL occupy a similar position in the LBP as mBTL, a highly efficacious activator of RhlR (Fig. 1C; Fig. S1). We targeted residues A44, G46, T58, L69, Y72, D81, I84, W96, and W108 (Fig. 1B and C). These residues were selected because of their proximity to the acyl tail of C4HSL, as well as the differences in conservation that are observed at these sites. We used an E. coli luciferase reporter assay to monitor ligand-dependent activation of WT RhlR and RhlR variants. WT RhlR and RhlR variants were expressed under the control of an arabinose-inducible promoter (Fig. S2). Transcription was monitored by light production via the expression of the luxCDABE operon controlled by the RhlR-dependent promoter of rhlA. Binding of RhlR to the rhlA promoter is highly dependent on the C4HSL-RhlR interaction, based on ChIP-seq analyses performed in P. aeruginosa as well as previously published E. coli reporter systems ([34], [39]). After expressing WT RhlR and RhlR variants in the E. coli reporter system, we performed dose response assays using C4HSL to calculate the concentration of C4HSL required to activate the reporter system to 50% maximum levels (EC50 value; Table 1). As expected, transcription activation by WT RhlR increased with increased C4HSL levels, with an EC50 value of ~2 µM. We observed a range of responses. Figure 1C depicts the targeted residues, which are colored based on the effect of amino acid substitution.
(§2) RhlR requires the accessory-binding protein, PqsE, for maximal activity. To determine if PqsE expression altered the activation of RhlR variants, we assessed AHL-dependent RhlR activation of the prhlA-luxCDABE reporter in the presence of a third plasmid that constitutively expresses PqsE in E. coli. […] RhlR variants that were still active but with increased EC50 values for C4HSL could have their activity enhanced by PqsE. […] Thus, alterations to the LBP can diminish the additive effect of PqsE-dependent transcription, indicating a potential role of allosteric conformational changes dependent on ligand occupancy. […] RhlR variants at residues I84 and W108 could not be activated by C4HSL, and thus, light levels remained low at all concentrations that were tested. Unlike the aforementioned variants, RhlR I84M/W and RhlR W108F/Y were activated by the expression of PqsE (Fig. S4).
(§3) All E. coli strains in this study were grown overnight with shaking in 5 mL Luria-Bertani (LB) media supplemented with 100 µg/mL ampicillin, 50 µg/mL kanamycin, and 15 µg/mL tetracycline at 37°C overnight. Overnight cultures were diluted 1:100 into fresh media, grown at 37°C with shaking for 2 h until reaching OD600 = 0.4. Cultures were induced with a final concentration of 0.1% arabinose, and 198 μL of the induced culture was mixed with 2 μL of C4HSL dilutions in a clear-bottom, black-opaque 96-well plate (Corning) and grown at 37°C with shaking for 4 h. The C4HSL dilution series was performed 1:1 in dimethyl sulfoxide (DMSO) with a top final concentration of 10 μM. Luminescence and optical density were recorded using a Glomax (Promega) plate reader.

RhlR (T58I) = biological target: T2, RhlR (T58I) (Pseudomonas aeruginosa, UniProt P54292, T58I)
T2 construct: expressed in transfected cells; host or cells: E. coli carrying pBAD-A-rhlR mutant, pCS26-prhlA-luxCDABE and pACYC-pqsE or empty pACYC
T2 sequence (P54292 1-241 T58I): T1 sequence (P54292 1-241 T58F) with F58I
Description: as §1, §2, §3

RhlR (T58L) = biological target: T3, RhlR (T58L) (Pseudomonas aeruginosa, UniProt P54292, T58L)
T3 construct: expressed in transfected cells; host or cells: E. coli carrying pBAD-A-rhlR mutant, pCS26-prhlA-luxCDABE and pACYC-pqsE or empty pACYC
T3 sequence (P54292 1-241 T58L): T1 sequence (P54292 1-241 T58F) with F58L
Description: as §1, §2, §3

CCCC(=O)N[C@H]1CCOC1=O [C4HSL, N-butyryl-L-homoserine lactone]
EC50 (RhlR (T58F); Vector (no pqsE)): 3210 nM | EC50 (RhlR (T58F); pqsE co-expressed): 198 nM | EC50 (RhlR (T58I); Vector (no pqsE)): 1820 nM | EC50 (RhlR (T58I); pqsE co-expressed): 120 nM | EC50 (RhlR (T58L); Vector (no pqsE)): 854 nM | EC50 (RhlR (T58L); pqsE co-expressed): 99 nM

Source: paper PMC13192270, “RhlR quorum-sensing receptor ligand sensitivity regulates the differential expression of phenazine genes in Pseudomonas aeruginosa” (Journal of Bacteriology, 2026)
